For this assay, the target named is T1, Human autotaxin enzyme (Homo sapiens, UniProt Q13822).
T1 construct: purchased R&D System
In words: Evaluation of autotaxin inhibitor, 18:0 Lyso PC / choline assay (Test Example 2). Type of assay: biochemical. As for the experimental part:
Solution B containing 100 mM Tris-HCl buffer (pH7.5), 150 mM NaCl, 5 mM MgCl2, and 0.05% Triton X-100 was prepared. Human autotaxin enzyme (purchased from R&D System) was diluted with Solution B, and 2.5 μl of which was added to a solution of test compound in DMSO. Furthermore, 2.5 μl of 200 μM 18:0 Lyso PC (purchased from Avanti Polar Lipids) in Solution B was added and allowed to react at room temperature for 2 hours. After completion of the reaction, 15 μl of the coline assay reagent. (100 mM Tris-HCl buffer (pH7.5), 5 mM. MgCl2, 77 μg/ml coline oxidase, 10 μg/ml peroxydase, 25μM 10-acetyl-3,7-dihydroxyphenoxazine, and excess autotaxin inhibitor) was added and allowed to react at room temperature for 20 minutes. The fluorescent dye Resorufin, which was produced by the reaction, was detected. The fluorescence was detected using ViewLux
(PerkinElmer, Inc.) with a excitation wavelength of 531 nm and a fluorescence wavelength of 598 nm.
The percent inhibition of the test compound was calculated by assuming the sample with no test compound as 0% inhibition and the sample with no enzyme as 100% inhibition, and the percent inhibitions at different concentrations of the test compound were plotted to obtain a concentration-dependent curve.

[1] abbreviates: human autotaxin enzyme, 18:0 Lyso PC substrate, choline assay, room temperature 2 hours, read-out: Inhibitor activity (IC50).
The mark [2] stands for this setting: autotaxin inhibition, IC50 class, read-out: Inhibitor activity.

pIC50: −log10 of the molar value. Like-named read-outs stand apart in the source and are kept apart here. Some results are limits rather than exact numbers.

On to `Cc1nc(-c2ccc(C#N)cc2NC(=O)C2CC2)cc(=O)n1CC(=O)NCC1(CO)COC1` [Compound I-0287], for which the pIC50 under setting [1] was 7.00 to 8.00.

As to `N#CC1(NC(=O)Cn2c(CCCC(F)(F)F)nc(-c3ccc(Cl)cc3)cc2=O)CC1` [Compound I-0123], under setting [1], the pIC50 is 7.00 to 8.00.

As for `CC(C)(C)C(=O)Nc1cc(Cl)ccc1-c1cc(=O)n(CC(=O)N2CCC(C(=O)O)CC2)c(CCC(F)(F)F)n1` [Compound I-0367], the pIC50 under setting [1] is 7.00 to 8.00.

For `CN(CCC#N)C(=O)c1cccc(Cn2c(CCCC(F)(F)F)nc(-c3ccc(Cl)cc3)cc2=O)c1` [Compound I-0157], the pIC50 under setting [1] was 7.00 to 8.00.

As for `O=C(Cn1c(CCCC(F)(F)F)nc(-c2ccc(C(F)(F)F)cc2)cc1=O)NCc1c[nH]nn1` [Compound I-0330], the pIC50 under setting [1] is 7.00 to 8.00.

Take `Cc1nc(-c2ccc(Cl)cc2NC(=O)C2CC2)cc(=O)n1CC(=O)NC1(C#N)CC1` [Compound I-0416]: the pIC50 under setting [1] is 7.00 to 8.00.

In the case of `CCCCCc1nc(-c2ccc(Cl)cc2)cc(=O)n1CC(=O)NC1(C#N)CC1` [Compound I-0090], the pIC50 under setting [1] is 7.00 to 8.00.

`CCCCCc1nc(-c2ccc(Cl)cc2)cc(=O)n1CC(=O)NCCc1ccccc1` [Compound I-0103]: the pIC50 under setting [1] was 7.00 to 8.00.

On to `COC(=O)Nc1cc(C#N)ccc1-c1cc(=O)n(CC(=O)NC(C)C)c(C)n1` [Compound I-0389], for which the pIC50 under setting [1] was 7.00 to 8.00.

As to `CC(=O)Nc1cc(Cl)ccc1-c1cc(=O)n(CC(=O)OC(C)(C)C)c(C)n1` [Compound I-0245], under setting [2], the pIC50 was over 8.00.

Regarding `CCCCCc1nc(-c2ccc(Cl)cc2)cc(=O)n1CC(=O)NCCN(C)C` [Compound I-0032], the pIC50 under setting [1] is 6.00 to 7.00.

Consider `O=C(Cn1c(CCCC(F)(F)F)nc(-c2ccc(C(F)(F)F)cc2)cc1=O)N1CCN(CCO)CC1` [Compound I-0346], for which the pIC50 under setting [1] is 7.00 to 8.00.

For `CCCCCn1c(-c2ccc(Cl)cc2)cc(=O)n(C)c1=N` [Compound I-0001], the pIC50 under setting [1] is at most 6.00.

Regarding `O=C(c1cccc(Cn2c(CCCC(F)(F)F)nc(-c3ccc(Cl)cc3)cc2=O)c1)N1CCC(O)CC1` [Compound I-0158], the pIC50 under setting [1] was 7.00 to 8.00.

Turning to `O=C(Cn1c(CCCC(F)(F)F)nc(-c2ccc(Cl)cc2CO)cc1=O)NCC1(CO)COC1` [Compound I-0334], the pIC50 under setting [1] is 7.00 to 8.00.

For the compound `CC(=O)Nc1cc(Cl)ccc1-c1cc(=O)n(CC(=O)O)c(C)n1` [Compound I-0247], the pIC50 under setting [2] is at most 6.00.

In the case of `COC(=O)Nc1cc(Cl)ccc1-c1cc(=O)n(CC(=O)N2CCN(CC(F)(F)F)CC2)c(C)n1` [Compound I-0481], the pIC50 under setting [1] is 7.00 to 8.00.

Consider `CCCCCc1nc(-c2ccc(Cl)cc2)cc(=O)n1Cc1cccc(C(=O)OC)c1` [Compound I-0074], for which the pIC50 under setting [1] is at most 6.00.

For the compound `CSc1nc(-c2ccc(Cl)cc2NC(C)=O)cc(=O)n1CC(=O)NC(C)(C)C` [Compound I-0251], the pIC50 under setting [2] is 7.00 to 8.00.

For `CC(C)(C)C(=O)Nc1cc(Cl)ccc1-c1cc(=O)n(Cc2cccc(C(=O)NC(CO)CO)c2)cn1` [Compound I-0486], under setting [1], the pIC50 was 6.00 to 7.00.

In the case of `CC(C)(C)C(=O)Nc1cc(Cl)ccc1-c1cc(=O)n(Cc2cccc(C(=O)NCC3CCC(=O)NC3)c2)cn1` (centres unmarked) [Compound I-0498], the pIC50 under setting [1] is 6.00 to 7.00.

For `COC(=O)Nc1cc(Cl)ccc1-c1cc(=O)n(CC(=O)NCC2CNC(=O)O2)c(C)n1` (centres unmarked) [Compound I-0442], the pIC50 under setting [1] is 7.00 to 8.00.

On to `O=C(O)c1cccc(Cn2c(CCC(F)(F)F)nc(-c3ccc(Cl)cc3NC(=O)C3CC3)cc2=O)c1` [Compound I-0345], for which the pIC50 under setting [1] was 7.00 to 8.00.

Consider `COC(=O)Nc1cc(Cl)ccc1-c1cc(=O)n(CC(=O)NC(C)(C)CO)c(C)n1` [Compound I-0412], for which the pIC50 under setting [1] was over 8.00.

On to `Cc1nc(-c2ccc(C#N)cc2NC(=O)C(C)(C)C)cc(=O)n1Cc1cccc(C(=O)O)c1` [Compound I-0282], for which the pIC50 under setting [1] was over 8.00.

`Cc1nonc1CNC(=O)c1cccc(Cn2c(CCCC(F)(F)F)nc(-c3ccc(Cl)cc3)cc2=O)c1` [Compound I-0190]: the pIC50 under setting [1] was 6.00 to 7.00.

For `CCCCCc1nc(-c2ccc(Cl)cc2)cc(=O)n1CC(=O)N1[C@H](C)COC[C@@H]1C` [Compound I-0095], the pIC50 under setting [1] is 7.00 to 8.00.

Regarding `CCCCCc1nc(OC2CCC(C#N)CC2)cc(=O)n1CC(=O)NC1(C#N)CC1` (centres unmarked) [Compound I-0208], the pIC50 under setting [1] was at most 6.00.

Consider `O=C(Cn1c(CCCC(F)(F)F)nc(-c2ccc(Cl)cc2)cc1=O)NCCCS(=O)(=O)O` [Compound I-0138], for which, under setting [1], the pIC50 was over 8.00.

With `N#CC1(NC(=O)Cn2c(CCCC(F)(F)F)nc(-c3ccc(C(F)(F)F)nc3)cc2=O)CC1` [Compound I-0233], the pIC50 under setting [1] was 7.00 to 8.00.

Consider `N#CCNc1nc(-c2ccc(C#N)cc2)cc(=O)n1Cc1ccccc1` [Compound I-0106], for which the pIC50 under setting [1] is at most 6.00.

Consider `N#Cc1ccc(-c2cc(=O)n(CC(=O)NC3(C#N)CC3)c(CCCC(F)(F)F)n2)cc1` [Compound I-0227], for which the pIC50 under setting [1] was over 8.00.

Turning to `N#CC1(NC(=O)Cn2c(COCC3CC3)nc(-c3ccc(Cl)cc3)cc2=O)CC1` [Compound I-0209], the pIC50 under setting [1] was 7.00 to 8.00.

Take `CCCCCc1nc(-c2ccc(Cl)cc2)cc(=O)n1CC(=O)NCCC#N` [Compound I-0080]: the pIC50 under setting [1] is 7.00 to 8.00.

In the case of `CCCCCNc1nc(-c2ccc(C(F)(F)F)cc2)cc(=O)n1Cc1ccccc1` [Compound I-0004], under setting [1], the pIC50 was at most 6.00.

On to `Cc1nc(-c2ccc(Cl)cc2NC(=O)C2CC2)cc(=O)n1CC(=O)N1CCN(CC(F)(F)F)CC1` [Compound I-0485], for which the pIC50 under setting [1] was 7.00 to 8.00.

As for `CC(C)(CNC(=O)Cn1c(CCCC(F)(F)F)nc(-c2ccc(Cl)cc2)cc1=O)N1CCOCC1` [Compound I-0122], the pIC50 under setting [1] is 6.00 to 7.00.

As for `N#CC1(NC(=O)Cn2c(CCCC(F)(F)F)nc(-c3ccc(Cl)cc3F)cc2=O)CC1` [Compound I-0228], the pIC50 under setting [1] was over 8.00.

As for `O=C(Cn1c(CCCC(F)(F)F)nc(-c2ccc(Cl)cc2)cc1=O)NCCN1CCNC1=O` [Compound I-0121], the pIC50 under setting [1] is 6.00 to 7.00.

Turning to `CC(=O)Nc1cc(Cl)ccc1-c1cc(=O)n(CC(=O)O)cn1` [Compound I-0246], the pIC50 under setting [2] is at most 6.00.

As for `CCCCCc1nc(-c2ccc(Cl)cc2)cc(=O)n1CC(=O)NCCCC(=O)O` [Compound I-0044], the pIC50 under setting [1] was over 8.00.

With `CNC(=O)CN1CCC(NC(=O)Cn2c(CCCC(F)(F)F)nc(-c3ccc(C(F)(F)F)cc3)cc2=O)CC1` [Compound I-0365], the pIC50 under setting [1] was 6.00 to 7.00.

On to `O=C(O)c1cncc(Cn2c(CCCC(F)(F)F)nc(-c3ccc(Cl)cc3)cc2=O)c1` [Compound I-0288], for which the pIC50 under setting [1] was 7.00 to 8.00.

As for `O=C(O)Cn1c(CCCC(F)(F)F)nc(-c2ccc(Cl)cc2CO)cc1=O` [Compound I-0264], the pIC50 under setting [1] is at most 6.00.

On to `CSc1nc(-c2ccc(Cl)cc2NC(C)=O)cc(=O)n1CC(=O)NC1(C#N)CC1` [Compound I-0243], for which, under setting [2], the pIC50 was 7.00 to 8.00.

`CNS(=O)(=O)CCNC(=O)Cn1c(C)nc(-c2ccc(Cl)cc2NC(=O)OC)cc1=O` [Compound I-0465]: the pIC50 under setting [1] is over 8.00.

In the case of `O=C(NCC(O)c1ccccc1)c1cccc(Cn2c(CCCC(F)(F)F)nc(-c3ccc(Cl)cc3)cc2=O)c1` (centres unmarked) [Compound I-0167], under setting [1], the pIC50 is 6.00 to 7.00.

With `COC(=O)Nc1cc(Cl)ccc1-c1cc(=O)n(CC(=O)N2CC(F)C2)c(C)n1` [Compound I-0395], under setting [1], the pIC50 was 6.00 to 7.00.

As for `CC(C)(C)OC(=O)Cn1cnc(-c2ccc(Cl)cc2)cc1=O` [Compound I-0388], under setting [1], the pIC50 is at most 6.00.

Take `O=C(O)c1nc(Cn2c(CCCC(F)(F)F)nc(-c3ccc(Cl)cc3)cc2=O)cs1` [Compound I-0294]: the pIC50 under setting [1] is 7.00 to 8.00.
